The values that follow come from patent US11066414B2, “Cot modulators and methods of use thereof” (Gilead Sciences, Inc., priority 2015, dated 2021).

In assay [1] the test system is TNFα. Kind of assay: Cot Monocyte TNFα Cell Based Assay.
Assay [2] addresses Human Cot (Homo sapiens (Human), UniProt P41279). The experiment in a line: High Throughput Cot Biochemical Assay.
The mark [3] stands for this setting: Homo sapiens, Monocyte, read-out: EC50 TNF, LPS-stimulated human monocytes, TNFα TR-FRET.
The mark [4] stands for this setting: IC50 HTRF, Cot HTRF (TR-FRET KinEASE) biochemical assay, 400 μM ATP.
Setting [5] is: Homo sapiens, Monocyte, read-out: EC50 TNF, LPS-stimulated human monocytes, TNFα.
Where [6] appears, read: IC50 HTRF, Cot HTRF (TR-FRET) biochemical assay.
Setting [7] is: read-out: EC50 TNF, LPS-stimulated human monocytes, TNFα TR-FRET.
Where [8] appears, read: read-out: IC50 HTRF, Cot HTRF (TR-FRET KinEASE) biochemical assay, 400 μM ATP.

The EC50 is the concentration needed to bring the measured effect to its halfway point. A word on the IC50: it is the midpoint of a concentration-inhibition curve.

The structures appear in SMILES notation. Like-named read-outs stand apart in the source and are kept apart here.

Human Cot, sequence (P41279 30-397): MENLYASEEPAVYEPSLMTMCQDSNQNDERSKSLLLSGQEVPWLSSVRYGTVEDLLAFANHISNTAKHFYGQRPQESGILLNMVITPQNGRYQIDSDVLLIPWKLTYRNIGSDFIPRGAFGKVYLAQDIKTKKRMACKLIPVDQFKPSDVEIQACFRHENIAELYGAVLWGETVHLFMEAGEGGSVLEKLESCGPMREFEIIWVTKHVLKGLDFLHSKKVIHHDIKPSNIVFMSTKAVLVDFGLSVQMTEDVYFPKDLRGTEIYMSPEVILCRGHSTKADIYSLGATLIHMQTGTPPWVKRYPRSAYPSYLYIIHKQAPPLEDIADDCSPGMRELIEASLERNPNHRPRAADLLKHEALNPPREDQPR

With `COc1ncccc1[C@H](Nc1cc(C#N)c2ncc(C#N)c(NCC(C)(C)C)c2c1)c1cn(C2(C(F)(F)F)CC2)nn1` [Example 885, (S)-6-(((2-methoxypyridin-3-yl)(1-(1-(trifluoromethyl)cyclopropyl)-1H-1,2,3-triazol-4-yl)methyl)amino)-4-(neopentylamino)quinoline-3,8-dicarbonitrile], in assay [1] (setting [3]), the EC50 was 132 nM. In assay [2] (setting [4]), this compound displayed a half-inhibitory concentration (IC50) of 10 nM.
As for `Cc1nc(F)ccc1[C@H](Nc1cc(Cl)c2ncc(C#N)c(NCC(C)(C)C)c2c1)c1nnn(C2(C(F)F)CC2)c1F` [Example 960, (S)-8-chloro-6-(((1-(1-(difluoromethyl)cyclopropyl)-5-fluoro-1H-1,2,3-triazol-4-yl)(6-fluoro-2-methylpyridin-3-yl)methyl)amino)-4-(neopentylamino)quinoline-3-carbonitrile], the EC50 in assay [1] (setting [3]) turned out to be 55 nM. In assay [2] (setting [4]), this compound showed an IC50 of 7 nM.
`Cc1ccc([C@H](Nc2cc(Cl)c3ncc(C#N)c(Nc4ccc(F)c(Cl)c4)c3c2)c2cn(COC(=O)C(C)(C)C)nn2)cn1` [Example 273, (S)-(4-(((8-chloro-4-((3-chloro-4-fluorophenyl)amino)-3-cyanoquinolin-6-yl)amino)(6-methylpyridin-3-yl)methyl)-1H-1,2,3-triazol-1-yl)methyl pivalate]: in assay [1] (setting [5]), the EC50 was determined as 1560 nM. Moreover, the IC50 in assay [2] (setting [6]) came out at 51 nM.
In the case of `[2H][C@](Nc1cc(OC)c2ncc(C#N)c(N[C@H](CC)c3ccccc3)c2c1)(c1ccc(F)nc1)c1cn(C2CC2)nn1` [Example 97, 6-(((S)-(1-cyclopropyl-1H-1,2,3-triazol-4-yl)(6-fluoropyridin-3-yl)methyl-d)amino)-8-methoxy-4-(((R)-1-phenylpropyl)amino)-quinoline-3-carbonitrile], in assay [1] (setting [5]), the half-maximal effective concentration (EC50) was 358 nM. In assay [2] (setting [6]), this compound came in with a half-inhibitory concentration (IC50) of 20 nM.
For `CC(C)(C)CNc1c(C#N)cnc2c(C#N)cc(N[C@H](c3cn(C(CF)CF)nn3)c3cccc4ncccc34)cc12` [Example 893, (S)-6-(((1-(1,3-difluoropropan-2-yl)-1H-1H-1,2,3-triazol-4-yl)(quinolin-5-yl)methyl)amino)-4-(neopentyl-amino)quinoline-3,8-dicarbonitrile], in assay [1] (setting [7]), the EC50 is 99 nM. Further, in assay [2] (setting [8]), the IC50 is 4 nM.
`CCN1CCc2c([C@H](Nc3cc(Cl)c4ncc(C#N)c(Nc5ccc(F)c(Cl)c5)c4c3)c3cn(C4COC4)nn3)csc2C1` [Example 278, (S)-8-chloro-4-((3-chloro-4-fluorophenyl)amino)-6-(((6-ethyl-4,5,6,7-tetrahydro-thieno[2,3-c]pyridin-3-yl)(1-(oxetan-3-yl)-1H-1,2,3-triazol-4-yl)methyl)amino)quinoline-3-carbonitrile]: in assay [1] (Homo sapiens, Monocyte, read-out: EC50 TNF), the EC50 was found to be 269 nM. For the same compound, 3 nM corresponded to half-maximal inhibition in assay [2] (IC50).
Regarding `COc1nccc2c([C@H](Nc3cc(C#N)c4ncc(C#N)c(NCC(C)(C)C)c4c3)c3cn(C4(C(F)(F)F)CC4)nn3)cccc12` [Example 812, (S)-6-(((1-methoxylsoquinolin-5-yl)(1-(1-(trifluoromethyl)cyclopropyl)-1H-1,2,3-triazol-4-yl)methyl)amino)-4-(neopentylamino)quinoline-3,8-dicarbonitrile], the EC50 in assay [1] (setting [7]) stood at 68 nM. The 50% inhibitory concentration (IC50) in assay [2] (setting [8]) was determined as 5 nM.
In the case of `Cc1nc(F)ccc1[C@H](Nc1cc(Cl)c2ncc(C#N)c(NCC(C)(C)C)c2c1Br)c1nnn(C2(C(F)F)CC2)c1F` [Example 975, (S)-5-bromo-8-chloro-6-(((1-(1-(difluoromethyl)cyclopropyl)-5-fluoro-1H-1,2,3-triazol-4-yl)(6-fluoro-2-methylpyridin-3-yl)methyl)amino)-4-(neopentylamino)quinoline-3-carbonitrile], the half-maximal effective concentration (EC50) in assay [1] (setting [3]) worked out at 1000 nM. The IC50 in assay [2] (setting [4]) amounted to 1230 nM.
Regarding `Cc1nc(F)ccc1[C@H](Nc1cc(C#N)c2ncc(C#N)c(NCC(C)(C)C(F)(F)F)c2c1)c1nnn(C2(C)CC2)c1F` [Example 863, (S)-6-(((5-fluoro-1-(1-methylcyclopropyl)-1H-1,2,3-triazol-4-yl)(6-fluoro-2-methylpyridin-3-yl)methyl)amino)-4-((3,3,3-trifluoro-2,2-dimethylpropyl)amino)-quinoline-3,8-dicarbonitrile], the concentration for a half-maximal effect (EC50) in assay [1] (setting [3]) is 35 nM. The compound further yielded a 50% inhibitory concentration (IC50) in assay [2] (setting [4]) of 2 nM.
Take `Cc1nc(F)ccc1[C@H](Nc1cc(Cl)c2ncc(C#N)c(Nc3cnc(F)c(F)c3)c2c1)c1cn(C2(C(F)F)CC2)nn1` [Example 742, (S)-8-chloro-6-(((1-(1-(difluoromethyl)cyclopropyl)-1H-1,2,3-triazol-4-yl)(6-fluoro-2-methylpyridin-3-yl)methyl)amino)-4-((5,6-difluoropyridin-3-yl)amino)quinoline-3-carbonitrile]: the EC50 in assay [1] (setting [5]) was 199 nM. Also, in assay [2] (setting [6]), the concentration for half-maximal inhibition (IC50) was determined as 17 nM.
In the case of `CC(C)n1cc([C@@H](Nc2cc(Cl)c3ncc(C#N)c(N[C@@H](c4ccccc4)C(C)(C)O)c3c2)c2cccnc2)nn1` [Example 187, 8-chloro-4-(((S)-2-hydroxy-2-methyl-1-phenylpropyl)amino)-6-(((S)-(1-isopropyl-1H-1,2,3-triazol-4-yl)(pyridin-3-yl)methyl)amino)-quinoline-3-carbonitrile], the EC50 in assay [1] (setting [5]) is 2110 nM. In assay [2] (setting [6]), this compound came in with an IC50 of 67 nM.
For `[2H][C@@](Nc1cc(Cl)c2ncc(C#N)c(NCC(C)(C)C)c2c1)(c1cn(C2CC2)nn1)c1cccnc1F` [Example 104, (S)-8-chloro-6-(((1-cyclopropyl-1H-1,2,3-triazol-4-yl)(2-fluoropyridin-3-yl)methyl-d)amino)-4-(neopentyl-amino)quinoline-3-carbonitrile], the EC50 in assay [1] (setting [5]) was 99 nM. The same compound returned an IC50 in assay [2] (setting [6]) of 1 nM.
For `CCn1ccc2c([C@H](Nc3cc(Cl)c4ncc(C#N)c(NCC(C)(C)C)c4c3)c3cn(C45CC(C4)C5)nn3)cccc2c1=O` [Example 769, (S)-6-(((1-(bicyclo[1.1.1]pentan-1-yl)-1H-1,2,3-triazol-4-yl)(2-ethyl-1-oxo-1,2-dihydroisoquinolin-5-yl)methyl)amino)-8-chloro-4-(neopentylamino)quinoline-3-carbonitrile] the same measures were 28 nM and 2 nM.
Taken in the same sequence, the figures for `[2H]C(Nc1cc(Cl)c2ncc(C#N)c(N[C@H](CC)c3ccccc3)c2c1)(c1cn(C2CC2)nn1)c1scnc1C` (stereo partly drawn) [Example 101, 8-chloro-6-(((1-cyclopropyl-1H-1,2,3-triazol-4-yl)(4-methylthiazol-5-yl)methyl-d)amino)-4-(((R)-1-phenylpropyl)amino)quinoline-3-carbonitrile] were 348 nM and 5 nM.
As for `[2H]C(Nc1cc(Cl)c2ncc(C#N)c(N[C@H](CC)c3ccccc3)c2c1)(c1cn(C2CC2)nn1)c1ccc(Cl)nc1C` (stereo partly drawn) [Example 122, 8-chloro-6-(((6-chloro-2-methylpyridin-3-yl)(1-cyclopropyl-1H-1,2,3-triazol-4-yl)methyl-d)amino)-4-(((R)-1-phenylpropyl)amino)quinoline-3-carbonitrile], in assay [1] (setting [5]), the EC50 is 240 nM. For the same compound, in assay [2] (setting [6]), the IC50 was 6 nM.
In the case of `Cc1n[nH]c2cccc([C@H](Nc3cc(Cl)c4ncc(C#N)c(NCC(C)(C)C)c4c3)c3cn(C4(C(F)F)CC4)nn3)c12` [Example 556, (S)-8-chloro-6-(((1-(1-(difluoromethyl)cyclo-propyl)-1H-1,2,3-triazol-4-yl)(3-methyl-1H-indazol-4-yl)methyl)amino)-4-(neopentyl-amino)quinoline-3-carbonitrile], the EC50 in assay [1] (setting [5]) was determined as 120 nM. The half-inhibitory concentration (IC50) in assay [2] (setting [6]) stood at 8 nM.
